In US10220010B2 (AuXin Surgery SA, priority 2014, dated 2019) one finds MESNA, Other impurities and Mesna disulphide data, which are given here for 1 compound.

The data set can be described thus: impurities levels (Mesna disulphide percentage) of lyophilizate Mesna compositions. In kind it is physicochemical. Conditions: content in composition. On the procedure:
Measurements of Mesna disulfide percentage were conducted for different Mesna lyophilizates made according to the present invention. The compositions of the tested Mesna lyophilizates comprised 125 mg or 250 mg of Mesna in 2 ml Water for Injection. Other tested Mesna lyophilizates compositions further comprised trehalose or Mannitol. […] Any slightly higher increase was of maximum 0.5% compared to the Mesna disulfide percentage measured for the pharmaceutical grade Mesna (Table 2). […] In addition, the sum of Mesna disulphide percentage and other impurities percentage was also always lower than said maximum of 3%.

“And” between values parts separate entries of the source, which are not always exact repeats. Equal entries are not always repeated.

For the compound `O=S(=O)([O-])CCS.[Na+]` [Mesna P, Sodium 2-mercaptoethanesulfonate], the MESNA is 98.82% and 98.80% and 98.96%; the Other impurities is 0.15% and 0.20% and 0.19%. In addition, the Mesna disulphide (stability marker) was 1.03% and 1.00% and 0.85%.
